From ChEMBL document CHEMBL3352253, “ApoE secretion modulating bromotyrosine derivative from the Australian marine sponge Callyspongia sp” (2014) come the findings set out here.

Each structure is given as a SMILES string.

This experiment relates to CCF-STTG1. The experiment can be described thus: Induction of apolipoprotein E secretion in human CCF-STTG1 cells at 40 uM after 96 hrs by ELSA relative to control. The class given is functional.

Take `COc1c(Br)cc(CC(=O)C(=O)O)cc1Br`: the “fold change (FC)” value came out at 1.
